Laboratory results: PubChem BioAssay (NCI)
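Cultured in 96-well plates, cells were exposed to test compound for 48 hours across five concentrations. TGI marks complete inhibition of growth.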

Legend:
Assay in all cases: NCI anticancer screen, dose series, 48 h
786-0 renal = tested on: 786-0 renal
A498 renal = tested on: A498 renal
A549 NSCLC = tested on: A549 NSCLC
ACHN renal = tested on: ACHN renal
BT-549 breast = tested on: BT-549 breast
CAKI-1 renal = tested on: CAKI-1 renal
CCRF-CEM leukemia = tested on: CCRF-CEM leukemia
COLO 205 colon = tested on: COLO 205 colon
DU-145 prostate = tested on: DU-145 prostate
EKVX NSCLC = tested on: EKVX NSCLC
HCC-2998 colon = tested on: HCC-2998 colon
HCT-116 colon = tested on: HCT-116 colon
HCT-15 colon = tested on: HCT-15 colon
HL-60(TB) leukemia = tested on: HL-60(TB) leukemia
HOP-62 NSCLC = tested on: HOP-62 NSCLC
HOP-92 NSCLC = tested on: HOP-92 NSCLC
HS 578T breast = tested on: HS 578T breast
HT29 colon = tested on: HT29 colon
IGROV1 ovarian = tested on: IGROV1 ovarian
K-562 leukemia = tested on: K-562 leukemia
KM12 colon = tested on: KM12 colon
LOX IMVI melanoma = tested on: LOX IMVI melanoma
M14 melanoma = tested on: M14 melanoma
MALME-3M melanoma = tested on: MALME-3M melanoma
MCF7 breast = tested on: MCF7 breast
MDA-MB-231 breast = tested on: MDA-MB-231 breast
MDA-MB-435 = tested on: MDA-MB-435
MDA-N = tested on: MDA-N
MOLT-4 leukemia = tested on: MOLT-4 leukemia
NCI-H226 lung = tested on: NCI-H226 lung
NCI-H23 lung = tested on: NCI-H23 lung
NCI-H460 lung = tested on: NCI-H460 lung
NCI-H522 lung = tested on: NCI-H522 lung
NCI/ADR-RES ovarian = tested on: NCI/ADR-RES ovarian
OVCAR-3 ovarian = tested on: OVCAR-3 ovarian
OVCAR-4 ovarian = tested on: OVCAR-4 ovarian
OVCAR-5 ovarian = tested on: OVCAR-5 ovarian
OVCAR-8 ovarian = tested on: OVCAR-8 ovarian
PC-3 prostate = tested on: PC-3 prostate
RPMI-8226 leukemia = tested on: RPMI-8226 leukemia
RXF 393 renal = tested on: RXF 393 renal
SF-268 CNS = tested on: SF-268 CNS
SF-295 CNS = tested on: SF-295 CNS
SK-MEL-2 melanoma = tested on: SK-MEL-2 melanoma
SK-MEL-28 melanoma = tested on: SK-MEL-28 melanoma
SK-MEL-5 melanoma = tested on: SK-MEL-5 melanoma
SK-OV-3 ovarian = tested on: SK-OV-3 ovarian
SN12C renal = tested on: SN12C renal
SNB-19 CNS = tested on: SNB-19 CNS
SNB-75 CNS = tested on: SNB-75 CNS
SW-620 colon = tested on: SW-620 colon
T-47D breast = tested on: T-47D breast
U251 CNS = tested on: U251 CNS
UACC-257 melanoma = tested on: UACC-257 melanoma
UACC-62 melanoma = tested on: UACC-62 melanoma
UO-31 renal = tested on: UO-31 renal

## CCCCCc1cc2cc3c(c(O)c2c(=O)[nH]1)C1(CC3)C(O)=c2c(=O)c3c(=O)cc(OC)c(=O)c=3c(=O)c2=C1O (stereo unspecified)
786-0 renal
  TGI: 2.91 µM
A498 renal
  TGI: 5.26 µM
A549 NSCLC
  TGI: 6.06 µM
ACHN renal
  TGI: 2.18 µM
BT-549 breast
  TGI: 3.6 µM
CAKI-1 renal
  TGI: 1.8 µM
CCRF-CEM leukemia
  TGI: 0.884 µM
COLO 205 colon
  TGI: 0.449 µM
DU-145 prostate
  TGI: 3.46 µM
EKVX NSCLC
  TGI: 3.36 µM
HCC-2998 colon
  TGI: 3.92 µM
HCT-116 colon
  TGI: 2.8 µM
HCT-15 colon
  TGI: 2.24 µM
HL-60(TB) leukemia
  TGI: 1.41 µM
HOP-62 NSCLC
  TGI: 12.8 µM
HOP-92 NSCLC
  TGI: 1.25 µM
HS 578T breast
  TGI: 15.3 µM
HT29 colon
  TGI: 2.9 µM
IGROV1 ovarian
  TGI: 4.4 µM
K-562 leukemia
  TGI: 2.29 µM
KM12 colon
  TGI: 5.4 µM
LOX IMVI melanoma
  TGI: 2.65 µM
M14 melanoma
  TGI: 3.22 µM
MALME-3M melanoma
  TGI: 2.54 µM
MCF7 breast
  TGI: 2.23 µM
MDA-MB-231 breast
  TGI: 2.16 µM
MDA-MB-435
  TGI: 3.93 µM
MDA-N
  TGI: 3.71 µM
MOLT-4 leukemia
  TGI: 4.48 µM
NCI-H226 lung
  TGI: 4.58 µM
NCI-H23 lung
  TGI: 2.77 µM
NCI-H460 lung
  TGI: 3.35 µM
NCI-H522 lung
  TGI: 1.69 µM
NCI/ADR-RES ovarian
  TGI: 7.35 µM
OVCAR-3 ovarian
  TGI: 1.93 µM
OVCAR-4 ovarian
  TGI: 3.02 µM
OVCAR-5 ovarian
  TGI: 5.86 µM
OVCAR-8 ovarian
  TGI: 3.26 µM
PC-3 prostate
  TGI: 2.24 µM
RPMI-8226 leukemia
  TGI: 2.42 µM
RXF 393 renal
  TGI: 3.55 µM
SF-268 CNS
  TGI: 3.56 µM
SF-295 CNS
  TGI: 18.7 µM
SK-MEL-2 melanoma
  TGI: 3.3 µM
SK-MEL-28 melanoma
  TGI: 4.26 µM
SK-MEL-5 melanoma
  TGI: 2.22 µM
SK-OV-3 ovarian
  TGI: 9.96 µM
SN12C renal
  TGI: 3.42 µM
SNB-19 CNS
  TGI: 3.74 µM
SNB-75 CNS
  TGI: 4.68 µM
SW-620 colon
  TGI: 3.31 µM
T-47D breast
  TGI: 3.58 µM
U251 CNS
  TGI: 2.75 µM
UACC-257 melanoma
  TGI: 2.14 µM
UACC-62 melanoma
  TGI: 4.82 µM
UO-31 renal
  TGI: 2.38 µM
